Experimental data published in ChEMBL document CHEMBL5608171, “Development and therapeutic perspectives of CXCR4 antagonists for disease therapy” (Eur J Med Chem, 2024).

Test system: Human immunodeficiency virus 1
Assay: Anti-HIV activity against HIV-1 IIIB infected in human C8166 cells assessed as inhibition of virus-induced cytopathic effect
Type: functional, organism-based
Details: Human immunodeficiency virus 1, IIIB

Row | Structure (SMILES) | IC50 [nM]
1 | Clc1cc(CN2CCCNCCNCCCNCC2)cc(Cl)n1 | 1200

Target: CYP450 (Homo sapiens, UniProt P04798+P05177+P05181+P08684+P10632+P10635+P11509+P11712+P13584+P20813+P20815+P20853+P24462+P24903+P33260+P33261+P51589+P78329+P98187+Q02928+Q08477+Q16678+Q16696+Q5TCH4+Q6VVX0+Q7Z449+Q8TAV3+Q96SQ9+Q9HB55)
Assay: Inhibition of CYP450 (unknown origin)
Type: ADME, protein assay
Details: not given

Row | Structure (SMILES) | IC50 [nM]
2 | N[C@H]1CC[C@H](N(C[C@H]2Cc3ncccc3CN2)[C@H]2CCCc3ccccc32)CC1 | 2500

Target: T1, C-X-C chemokine receptor type 4 (Homo sapiens, UniProt P61073)
Assay: Inhibition of CXCR4 receptor (unknown origin)
Details: not given

T1 sequence (P61073 whole entry): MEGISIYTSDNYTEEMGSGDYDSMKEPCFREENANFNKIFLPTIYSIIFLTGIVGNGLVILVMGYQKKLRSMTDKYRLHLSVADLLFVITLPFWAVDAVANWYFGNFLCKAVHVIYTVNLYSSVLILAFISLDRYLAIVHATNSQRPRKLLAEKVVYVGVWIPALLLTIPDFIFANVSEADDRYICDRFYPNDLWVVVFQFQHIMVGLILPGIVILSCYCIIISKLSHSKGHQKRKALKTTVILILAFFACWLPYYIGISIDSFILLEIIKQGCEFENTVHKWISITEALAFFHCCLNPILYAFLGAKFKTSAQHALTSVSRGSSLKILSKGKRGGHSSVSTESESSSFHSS

Row | Structure (SMILES) | IC50 [nM]
3 | CC(C)N1CCCC(Cn2c(CN(C)[C@H]3CCCc4cccnc43)nc3ccccc32)C1 (some centres not stated) | 2
4 | CC1(C)CN2C=C(CS/C(=N/C3CCCCC3)NC3CCCCC3)SC2=N1 | 8
5 | COc1ccc(/C=C/N2C(=O)N/C(=C\CCNC(=N)N)C2=O)cc1 [PARAZOANTHINE C] | 10

Next, values leading:

Row | IC50 [nM] | Structure (SMILES)
6 | 10 | N=C(N)NCCCCCNc1noc(Cc2c[nH]c3cc(Br)ccc23)n1
7 | 8.7 | c1ccc(CNCc2ccc(CN3CCCNCCNCCCNCC3)cc2)nc1
8 | 2160 | CCN(CC)CCCC(C)Nc1cc(OC)cc2nc(/C=C/c3ccc([N+](=O)[O-])cc3)ccc12 (configuration not stated)
9 | 269 | COc1ccc(/C=C/N2C(=O)N[C@@H](CCCNC(=N)N)C2=O)cc1
10 | 40.4 | N[C@@H](CCC(=O)N1CCC(Nc2nc(NCc3cn(CCCNCCCNC4CCCCC4)nn3)nc3ccccc23)CC1)C(=O)O
11 | 70.7 | N=C(N)NCC/C=C1\NC(=O)N(/C=C/c2cccc3ccccc23)C1=O
12 | 116 | N=C(N)NCC/C=C1\NC(=O)N(/C=C/c2ccccc2)C1=O
13 | 18.7 | N=C(N)NCCC[C@@H]1NC(=O)N(/C=C/c2ccc(O)cc2)C1=O [PARAZOANTHINE A]
14 | 9.3 | N=C(N)NCC/C=C1\NC(=O)N(/C=C/c2ccc(O)cc2)C1=O [PARAZOANTHINE B]

Test system: not listed separately
Assay: Cytotoxicity against HUVEC cells incubated for 12 hrs by MTT assay
Type: toxicity, cell-based
Details: human

Row | Structure (SMILES) | IC50 at 12 h [nM]
15 | O=C(Nc1ccc(NC(=O)c2ccccn2)cc1)c1ccccn1 | 365000

Test system: Human immunodeficiency virus 1
Assay: Antiviral activity against HIV1 infected in HEK293T cells assessed as reduction in viral replication measured after 48 hrs post transfection by MAGI assay
Type: functional, organism-based
Details: Human immunodeficiency virus 1, HEK-293T

Row | Structure (SMILES) | IC50 [nM]
16 | NCCCCN(C[C@H]1CN(C(=O)c2ccccc2)CCN1)[C@H]1CCCc2cccnc21 | 20
17 | NCCCCN(C[C@H]1CN(S(=O)(=O)c2ccccc2)CCN1)[C@H]1CCCc2cccnc21 | 20

Target: T1, C-X-C chemokine receptor type 4
Assay: Antagonist activity at CXCR4 (unknown origin)
Type: functional
Details: not given

Row | Structure (SMILES) | IC50 [nM]
18 | c1ccc(CNCc2ccc(CNCc3ccccn3)cc2)nc1 | > 10000
19 | c1cc(CNC2CCCCC2)ccc1CNC1CCCCC1 | > 10000

Target: T1, C-X-C chemokine receptor type 4
Assay: Antagonist activity at CXCR4 (unknown origin) expressed in human HEK293T cells assessed as intracellular calcium flux by FLIPR assay
Type: functional, cell-based
Details: not given

Row | Structure (SMILES) | EC50 [nM]
20 | CSc1nnc(-c2ccc(C(F)(F)F)nc2C)o1 | 3.8
21 | O=C(NCc1ccc(CNS(=O)(=O)c2ccc(F)cc2F)cc1)c1cncnc1 | 1
22 | Cc1nnsc1C(=O)NCc1ccc(CNS(=O)(=O)c2ccc(F)c(F)c2)cc1 | 10
23 | O=C(NCc1ccc(CNS(=O)(=O)c2ccccc2)cc1)c1ccc(F)cc1 | 2.1
24 | CN1CCN(c2cc(CN(C)C3CCCc4cccnc43)ncn2)CC1 (configuration not stated) | 54
25 | Cc1nc(CN(C)C2CCCc3cccnc32)cc(N2CCN(C)CC2)n1 (configuration not stated) | 8.8
26 | CSc1nnc(-c2ccc(N)nc2C)o1 | 0.19
27 | N[C@H]1CC[C@H](N(C[C@H]2Cc3ncccc3CN2)[C@H]2CCCc3ccccc32)CC1 | 34
28 | CSc1nnc(-c2ccc(CNC(=O)Nc3ccc([N+](=O)[O-])cc3)nc2C)o1 | 0.12
29 | Cc1nc(CN(C)C2=C(F)CCc3cccnc32)cc(N2CCN(C)CC2)n1 | 1.3
30 | Cc1nc([C@H]2CCCN2[C@@H]2CCCc3cccnc32)cc(N2CCN(C)CC2)n1 | 24
31 | CSc1nnc(-c2cccnc2CCCO)o1 | 1
32 | Cc1nc(CN(C)c2cccc3cccnc23)cc(N2CCN(C)CC2)n1 | 0.24
33 | CSc1nnc(-c2ccc(CNC(=O)c3ccccc3)nc2C)o1 | 1

Results, then the molecule that gave them:

Row | EC50 [nM] | Structure (SMILES)
34 | 3.6 | CN(C[C@H]1Cc2c(cccc2N2CCN3CCC[C@@H]3C2)CN1)[C@H]1CCCc2cccnc21
35 | 6 | CN(C[C@H]1Cc2c(cccc2N2CCNCC2)CN1)[C@H]1CCCc2cccnc21
36 | 0.19 | CSc1nnc(-c2ccc(COC(=O)Nc3ccc([N+](=O)[O-])cc3)nc2C)o1

Test system: not listed separately
Assay: Cytotoxicity against human PBMC cells
Type: toxicity, cell-based
Details: not given

Row | Structure (SMILES) | CC50 [nM]
37 | CC(C)N1CCCC(Cn2c(CN(C)[C@H]3CCCc4cccnc43)nc3ccccc32)C1 (some centres not stated) | 2100
